The source of these data is US12473310B2, “Vitamin D3 phosphate and pharmaceutically acceptable salts thereof, pharmaceutical compositions comprising the compound and methods for preparing the compound” (King's College London, priority 2020, dated 2025).

Usually solubility stands for the concentration that dissolves in the medium under given conditions.

A short description of one series: in vitro. As to conditions: for total penetration into / deposited in the skin: vehicle 100% PG, 0.25 mm porcine skin. In kind it is in vitro ADME, porcine. The protocol:
Donor solutions (2.5 mg/mL, 100,000 IU), which is an infinite dose, containing cholecalciferol and cholecalciferol phosphate disodium prepared according to Example 1, were compared to PG:EtOH (50:50) for cholecalciferol and 100% water for cholecalciferol phosphate.
The Franz diffusion cell was used to investigate the permeation of cholecalciferol and cholecalciferol phosphate through porcine skin. Fresh white adult porcine ears were obtained and any damaged ears were discarded. The ears were removed from the carcass after hair removal. The ears were washed with deionised water, the residual water on the skin surface was immediately removed by blotting with a tissue, visible hairs were trimmed carefully, and the ears were stored at −20° C. for no longer than 30 days until required. On the day of the experiment the skin was defrosted, and the subcutaneous fat was removed using a scalpel. The tissue was cut into the appropriate size sections (0.25 mm thick, 2.19±0.21 cm^2) to be mounted with the stratum corneum (SC) facing the donor compartment between donor and receiver compartments of Franz diffusion cells. The pieces of skins were sealed between the two compartments using parafilm, and 12 mm magnetic follows was placed into the receiver compartment. The receiver compartment in the Franz diffusion cell was filled with 100% PG for cholecalciferol; and a 1:1 mixture of PG: (MeOH:PBS ([…]), 90:10) for cholecalciferol phosphate (9.23±0.23 mL). The cell sealing was confirmed by cell inversion and monitoring solvent back diffusion. Sink conditions were maintained throughout the transport assays. The temperature of the Franz diffusion was maintained at 37° C. in a water bath, to set up the skin temperature 32° C. (Maddock, W. G. and Coller, F. A., ([…]) The role of the extremities in the dissipation of heat, American Journal of Physiology-Legacy Content, 106(3), 589-596). After 1 h equilibration at 37° C. in the water bath, 1 mL of receiver fluid was taken at time points 0 in 30 min and a fresh 100% PG was replaced to keep the volume content, and 1 mL of each formulation was applied in the donor compartment. After 24 h, the receiver fluid was collected and analysed by HPLC methods.
At the end of the transport studies, the Franz cells were dismantled, and the donor solution was collected into bottles containing 10 mL of extraction fluid; PG:EtOH (50:50) for cholecalciferol and MeOH:water (90:10) for cholecalciferol phosphate, by wiping the surface of the skin and inside of the donor compartment with two wet and then two dry cotton buds. The SC was removed from the epidermis by tape stripping. A 300 mg weight was used onto the skin to press the adhesive tape to apply defined pressure for 10 sec. A piece of tape that can cover the diffusion area was used to remove the SC. The first two pieces of tape were added into the donor solution, as the first 2 strips were considered as part of the applied formulation and its removal was part of the formulation wash off (Primo, F. L. et al., (2008) In vitro studies of cutaneous retention of magnetic nanoemulsion loaded with zinc phthalocyanine for synergic use in skin cancer treatment, Journal of Magnetism and Magnetic Materials, 320(14), e211-e214.; Sheth, N. V. et al., (1987) Measurement of the stratum corneum drug reservoir to predict the therapeutic efficacy of topical iododeoxyuridine for herpes simplex virus infection. Journal of investigative dermatology, 89(6), 598-602). The next 20 pieces of tapes were added into bottles containing 10 mL of extraction fluid. The epidermis was removed from the dermis and cut into small pieces by scalpels, placed in bottles containing 2 mL of extraction fluid. Furthermore, the dermis was cut into small pieces and was placed in bottles containing 2 mL of extraction fluid. […]

A short description of series [1]: solubility in donor solution and thermodynamic activity (Table 4). It is filed as physicochemical. As to conditions: for solubility: organic solvent or mixture, thermodynamic from solid; for Thermodynamic activity: proposed concentration in permeation studies relative to solubility.

In brackets after ≈: the same amount, converted by molar mass. Structures can show the parent of a compound that is named as a salt. Where two headings read alike, the source gives them in different places.

With `C=C1CC[C@H](OP(=O)(O)O)C/C1=C/C=C1\CCC[C@@]2(C)C1CC[C@@H]2[C@H](C)CCCC(C)C` (stereo partly drawn) [Cholecalciferol phosphate disodium salt, cholecalciferol phosphate disodium salt], the “deposition in the dermis compared with cholecalciferol” value in the series “in vitro” is on record as “not statistically different”. For the same compound, in the series “in vitro” (pig, 24 h, 2.5 mg/mL), the “deposited in the skin” value worked out at 29.59±9.44 μg/cm^2; the “deposition in the SC” value stood at 50.15±8.20 μg/cm^2; the “deposition in the epidermis” value turned out to be 113.96±18.79 μg/cm^2; the “skin deposition, times more than the cholecalciferol” value came to 1.97 times. Also, in “in vitro” (2.5 mg/mL, 24 h), the “total penetration into / deposited in the skin” value is 189.99±29.10 μg/cm^2. The “transdermal penetration, passed all the way through the skin” value in the series “in vitro” (vehicle PG, 24 h) was 50.50±6.40 μg/cm^2. In addition, the solubility in series [1] (PG, read-out: Solubility in PG) worked out at 2.5 mg/mL. In series [1], this compound registered a Thermodynamic activity of 1.0.

`C=C1CC[C@H](O)C/C1=C/C=C1\CCC[C@]2(C)[C@@H]([C@H](C)CCCC(C)C)CC[C@@H]12` [Cholecalciferol, cholecalciferol, reference compound]: the “total recovery from the skin permeation experiments” value in the series “in vitro” (pig, 24 h, 2.5 mg/mL) is recorded as 80%. In addition, the recovery at 24 h, 2.5 mg/mL in “in vitro” (pig, total recovery from the skin permeation experiments) was determined as 61%. Moreover, the “total penetration into / deposited in the skin” value in “in vitro” (2.5 mg/mL, 24 h) came to 96.51±17.88 μg/cm^2. Besides, the “total penetration into the skin” value in the series “in vitro” (vehicle PG:EtOH (50:50), 24 h) is recorded as 80.63±13.23 μg/cm^2. For the same compound, in “in vitro” (vehicle PG, 24 h), the “deposition in the SC” value is on record as 1.79±1.80 μg/cm^2; the “deposition in the epidermis” value came to 40.13±24.26 μg/cm^2; the “transdermal penetration, passed all the way through the skin” value is “did not pass through the tissue”. In series [1], the solubility is 3.15 mg/mL (≈ 8.19 mM) and the Thermodynamic activity is given as 0.8.
